Experimental data taken from ChEMBL document CHEMBL1147251, “Crambescidin 826 and dehydrocrambine A: new polycyclic guanidine alkaloids from the marine sponge Monanchora sp. that inhibit HIV-1 fusion” (J Nat Prod, 2003).
Active and inactive are the calls of the source. The calls are words filed in the database; no cut-off is given here.

How the values were obtained:
[1] = Inhibition of HIV1 LAV gp120 binding to CD4 assessed as inhibition of CD4 expressing african green monkey BSC1 cells fusion to CXCR4 expressing mouse NIH3T3 cells after 2.5 hrs by beta-galactosidase assay; format: cell-based, Human immunodeficiency virus 1
[2] = Inhibition of HIV1 SF162 gp120 binding to CD4 assessed as inhibition of CD4 expressing african green monkey BSC1 cells fusion to CCR5 expressing mouse NIH3T3 cells after 2.5 hrs by beta-galactosidase assay; format: cell-based, Human immunodeficiency virus 1
NIH3T3 [3] = experiment: Inhibition of HIV1 LAV gp120 binding to CD4 assessed as inhibition of CD4 expressing african green monkey BSC1 cells fusion to CXCR4 expressing mouse NIH3T3 cells treated after 15 to 90 mins of fusion measured after 2.5 hrs by beta-galactosidase assay; format: cell-based; conditions: Human immunodeficiency virus 1
NIH3T3 [4] = experiment: Inhibition of HIV1 SF162 gp120 binding to CD4 assessed as inhibition of CD4 expressing african green monkey BSC1 cells fusion to CCR5 expressing mouse NIH3T3 cells treated after 15 to 90 mins of fusion measured after 2.5 hrs by beta-galactosidase assay; format: cell-based; conditions: Human immunodeficiency virus 1

| SMILES | IC50 [1] [nM] | IC50 [2] [nM] | Activity (NIH3T3 [3]) | Activity (NIH3T3 [4]) |
| --- | --- | --- | --- | --- |
| CC[C@H]1CCCC[C@@]2(C[C@@H]3CC[C@@H]4[C@H](C(=O)OCCCCCCCCCCCCCCCC(=O)N(CCCN)C[C@@H](O)CCN)[C@]5(CCC[C@@H](C)O5)N=C(N2)N34)O1 [CRAMBESCIDIN 800] | 1000 | 1000 | inactive | inactive |
| CC[C@H]1C=CCC[C@@]2(C[C@@H]3CC[C@@H]4[C@H](C(=O)OCCCCCCCCCCCCCCCCCC(=O)N(CCCN)CCCC(N)=O)[C@]5(CCC[C@@H](C)O5)N=C(N2)N34)O1 [CRAMBESCIDIN 826] | 1000 | 1000 |  |  |
| CCCCCCCCCCCc1nc(=N)n2c(c1C(=O)OCCCCNC(=N)N)CCC2 [DEHYDROCRAMBINE A] | 35000 | 35000 |  |  |
| CC[C@H]1C=CCC[C@@]2(C[C@@H]3CC[C@@H]4[C@H](C(=O)OCCCCCCCCCCCCCCCC5=NCCCN5CC(O)CCN)[C@]5(CCC[C@@H](C)O5)N=C(N2)N34)O1 (stereo not given in full) [FROMIAMYCALIN] | 1000 | 1000 |  |  |
